Measured values reported in the NIST ThermoML archive (doi:10.1016/j.jct.2011.09.001).

Experiments:
[1] = xn = mol fraction of the nth substance listed; conditions: 101 kPa, Liquid, x2 = 0; for speed of sound: Sing-around technique in a fixed-path interferometer; for mass density: Vibrating tube method
[2] = refractive index (Na D-line) (dimensionless); xn = mol fraction of the nth substance listed; conditions: 101 kPa, Liquid, Standard Abbe refractometry, x2 = 0
[3] = refractive index (Na D-line) (dimensionless); conditions: 101.33 kPa, Liquid, Standard Abbe refractometry
[4] = 101 kPa, Liquid; for speed of sound: Sing-around technique in a fixed-path interferometer; for mass density: Vibrating tube method

CCCCCCCCCC [decane] + c1ccc2c(c1)CCCC2
Conditions | mass density, [1] [kg/m3] | refractive index, [2] | speed of sound, [1] [m/s]
293.15 K | 730.1 | 1.4123 | 1254.6
303.15 K | 722.6 | 1.4079 | 1215.1
313.15 K | 714.9 | 1.4033 | 1176.1
323.15 K | 707.3 | 1.3987 | 1137.6
333.15 K | 699.5 | 1.3942 | 1099.8
343.15 K | 691.8 | 1.3893 | 1062.3

CCCCCCCCCC [decane]
Conditions | mass density, [4] [kg/m3] | refractive index, [3] | speed of sound, [4] [m/s]
293.15 K | 730.1 | 1.4123 | 1254.6
303.15 K | 722.6 | 1.4079 | 1215.1
313.15 K | 714.9 | 1.4033 | 1176.1
323.15 K | 707.3 | 1.3987 | 1137.6
333.15 K | 699.5 | 1.3942 | 1099.8
343.15 K | 691.8 | 1.3893 | 1062.3

c1ccc2c(c1)CCCC2 [1,2,3,4-tetrahydronaphthalene]
Conditions | mass density, [4] [kg/m3] | refractive index, [3] | speed of sound, [4] [m/s]
293.15 K | 969.5 | 1.5414 | 1489.5
303.15 K | 961.6 | 1.5367 | 1450.1
313.15 K | 953.7 | 1.5321 | 1411.5
323.15 K | 945.7 | 1.5274 | 1373.6
333.15 K | 937.8 | 1.5228 | 1336.4
343.15 K | 929.8 | 1.518 | 1299.8
